Laboratory results taken from the supplement of paper PMC10307832.

Legend:
Test in all cases: relative viability (nuclei count vs DMSO), 5 days (fraction); higher = more cells survive
201T = system: 201T
Summary of the method: (§1)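 Cells from lung cancer lines were seeded into 1536-well plates and, one day later, dosed by pin tool. Treatments were either a single drug or a fixed dose of an anchor drug with five library-drug doses (not always all listed) in √10 steps. After 5 days, nuclei were stained in a one-step fixation (final 0.05% Triton X-100, 1% formaldehyde, 1 ug/ml Hoechst) and counted on 4× images, and relative viability is the treated-to-vehicle nuclei ratio, as the median of duplicate plates.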

BEN = system: BEN
Summary of the method: as §1

EPLC-272H = system: EPLC-272H
Summary of the method: as §1

HCC-15 = system: HCC-15
Summary of the method: as §1

HCC-78 = system: HCC-78
Summary of the method: as §1

LCLC-97TM1 = system: LCLC-97TM1
Summary of the method: as §1

LU99A = system: LU99A
Summary of the method: as §1

NCI-H1355 = system: NCI-H1355
Summary of the method: as §1

NCI-H1395 = system: NCI-H1395
Summary of the method: as §1

NCI-H2009 = system: NCI-H2009
Summary of the method: as §1

NCI-H2085 = system: NCI-H2085
Summary of the method: as §1

NCI-H2126 = system: NCI-H2126
Summary of the method: as §1

NCI-H2228 = system: NCI-H2228
Summary of the method: as §1

NCI-H23 = system: NCI-H23
Summary of the method: as §1

NCI-H2405 = system: NCI-H2405
Summary of the method: as §1

NCI-H322M = system: NCI-H322M
Summary of the method: as §1

NCI-H460 = system: NCI-H460
Summary of the method: as §1

NCI-H647 = system: NCI-H647
Summary of the method: as §1

NCI-H650 = system: NCI-H650
Summary of the method: as §1

NCI-H661 = system: NCI-H661
Summary of the method: as §1

NCI-H838 = system: NCI-H838
Summary of the method: as §1

PC-14 = system: PC-14
Summary of the method: as §1

CN1CCN(CCOc2cc(OC3CCOCC3)c3c(Nc4c(Cl)ccc5c4OCO5)ncnc3c2)CC1 [Saracatinib] + Cc1nc(NC(=O)N2CCC[C@H]2C(N)=O)sc1-c1ccnc(C(C)(C)C(F)(F)F)c1 [Alpelisib] (partner 2 µM) gave a relative viability (201T; first compound 0.02 µM) of 1.09, a relative viability (201T; first compound 0.2 µM) of 0.865 and a relative viability (201T; first compound 0.6325 µM) of 0.856. For the same molecule, the relative viability (201T; first compound 2 µM) was 0.772, the relative viability (BEN; first compound 0.02 µM) was 1.08 and the relative viability (BEN; first compound 0.2 µM) was 1.03. The relative viability (BEN; first compound 0.6325 µM) was 1.07, the relative viability (BEN; first compound 2 µM) was 0.85 and the relative viability (EPLC-272H; first compound 0.02 µM) was 1.03. The relative viability (EPLC-272H; first compound 0.2 µM) was 0.732, the relative viability (EPLC-272H; first compound 0.6325 µM) was 0.942 and the relative viability (EPLC-272H; first compound 2 µM) was 0.821. For the same molecule, the relative viability (HCC-15; first compound 0.02 µM) was 0.889, the relative viability (HCC-15; first compound 0.2 µM) was 0.641 and the relative viability (HCC-15; first compound 0.6325 µM) was 0.808. The relative viability (HCC-15; first compound 2 µM) was 0.759, the relative viability (HCC-78; first compound 0.02 µM) was 0.29 and the relative viability (HCC-78; first compound 0.2 µM) was 0.328. For the same molecule, the relative viability (HCC-78; first compound 0.6325 µM) was 0.479, the relative viability (HCC-78; first compound 2 µM) was 0.323 and the relative viability (LCLC-97TM1; first compound 0.02 µM) was 0.198. The relative viability (LCLC-97TM1; first compound 0.2 µM) was 0.195, the relative viability (LCLC-97TM1; first compound 0.6325 µM) was 0.357 and the relative viability (LCLC-97TM1; first compound 2 µM) was 0.282. It also gave a relative viability (LU99A; first compound 0.02 µM) of 0.568, a relative viability (LU99A; first compound 0.2 µM) of 0.371 and a relative viability (LU99A; first compound 0.6325 µM) of 0.513. The relative viability (LU99A; first compound 2 µM) was 0.417, the relative viability (NCI-H1355; first compound 0.02 µM) was 0.848 and the relative viability (NCI-H1355; first compound 0.2 µM) was 0.833. It also gave a relative viability (NCI-H1355; first compound 0.6325 µM) of 0.861, a relative viability (NCI-H1355; first compound 2 µM) of 0.794 and a relative viability (NCI-H1395; first compound 0.02 µM) of 1.6. It also gave a relative viability (NCI-H1395; first compound 0.2 µM) of 1.06, a relative viability (NCI-H1395; first compound 0.6325 µM) of 0.956 and a relative viability (NCI-H1395; first compound 2 µM) of 0.851. It also gave a relative viability (NCI-H2009; first compound 0.02 µM) of 1.16, a relative viability (NCI-H2009; first compound 0.2 µM) of 1.14 and a relative viability (NCI-H2009; first compound 0.6325 µM) of 1.01. The relative viability (NCI-H2009; first compound 2 µM) was 0.961, the relative viability (NCI-H2085; first compound 0.02 µM) was 0.957 and the relative viability (NCI-H2085; first compound 0.2 µM) was 0.85. It also gave a relative viability (NCI-H2085; first compound 0.6325 µM) of 0.91, a relative viability (NCI-H2085; first compound 2 µM) of 0.888 and a relative viability (NCI-H2126; first compound 0.02 µM) of 0.751. For the same molecule, the relative viability (NCI-H2126; first compound 0.2 µM) was 0.654, the relative viability (NCI-H2126; first compound 0.6325 µM) was 0.749 and the relative viability (NCI-H2126; first compound 2 µM) was 0.622. The relative viability (NCI-H2228; first compound 0.02 µM) was 0.734, the relative viability (NCI-H2228; first compound 0.2 µM) was 0.562 and the relative viability (NCI-H2228; first compound 0.6325 µM) was 0.532. For the same molecule, the relative viability (NCI-H2228; first compound 2 µM) was 0.365, the relative viability (NCI-H23; first compound 0.02 µM) was 0.616 and the relative viability (NCI-H23; first compound 0.6325 µM) was 0.752. The relative viability (NCI-H23; first compound 2 µM) was 0.526, the relative viability (NCI-H2405; first compound 0.02 µM) was 0.796 and the relative viability (NCI-H2405; first compound 0.2 µM) was 0.821. It also gave a relative viability (NCI-H2405; first compound 0.6325 µM) of 0.413, a relative viability (NCI-H2405; first compound 2 µM) of 0.284 and a relative viability (NCI-H322M; first compound 0.02 µM) of 0.761. For the same molecule, the relative viability (NCI-H322M; first compound 0.2 µM) was 0.876, the relative viability (NCI-H322M; first compound 0.6325 µM) was 0.822 and the relative viability (NCI-H322M; first compound 2 µM) was 0.639. It also gave a relative viability (NCI-H460; first compound 0.02 µM) of 0.574, a relative viability (NCI-H460; first compound 0.2 µM) of 0.347 and a relative viability (NCI-H460; first compound 0.6325 µM) of 0.289. It also gave a relative viability (NCI-H460; first compound 2 µM) of 0.175, a relative viability (NCI-H647; first compound 0.02 µM) of 1.09 and a relative viability (NCI-H647; first compound 0.2 µM) of 0.83. It also gave a relative viability (NCI-H647; first compound 0.6325 µM) of 0.635, a relative viability (NCI-H647; first compound 2 µM) of 0.36 and a relative viability (NCI-H650; first compound 0.02 µM) of 1.14. It also gave a relative viability (NCI-H650; first compound 0.2 µM) of 0.814, a relative viability (NCI-H650; first compound 0.6325 µM) of 1.21 and a relative viability (NCI-H650; first compound 2 µM) of 1.13. For the same molecule, the relative viability (NCI-H661; first compound 0.02 µM) was 0.838, the relative viability (NCI-H661; first compound 0.2 µM) was 0.329 and the relative viability (NCI-H661; first compound 0.6325 µM) was 0.357. The relative viability (NCI-H661; first compound 2 µM) was 0.377, the relative viability (NCI-H838; first compound 0.02 µM) was 0.993 and the relative viability (NCI-H838; first compound 0.2 µM) was 0.929. For the same molecule, the relative viability (NCI-H838; first compound 0.6325 µM) was 0.771, the relative viability (NCI-H838; first compound 2 µM) was 0.803 and the relative viability (PC-14; first compound 0.02 µM) was 0.996. The relative viability (PC-14; first compound 0.2 µM) was 0.681, the relative viability (PC-14; first compound 0.6325 µM) was 0.46 and the relative viability (PC-14; first compound 2 µM) was 0.172.
